Test results taken from patent US9273058B2 (BRISTOL-MYERS SQUIBB COMPANY, priority 2013, dated 2016).
Read-outs that look alike come from different tables or passages of the source.

Legend:
CK1ε = CK1ε (Homo sapiens, UniProt P49674); experiment: CK1ε kinase assay (Caliper LabChip electrophoretic separation of fluoresceinated peptide substrate and product); format: biochemical; conditions: 200 pM CK1ε, 50 μM ATP, 1.5 μM peptide, 22 hours at room temperature
How it was run: (§1)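 IC50 values were obtained by non-linear regression from eleven-concentration titrations. The kinase reactions were incubated for 22 hours at room temperature before termination with 35 mM EDTA.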

CK1δ = CK1δ (Homo sapiens, UniProt P48730); experiment: CK1δ kinase assay (Caliper LabChip electrophoretic separation of fluoresceinated peptide substrate and product); format: biochemical; conditions: 200 pM CK1δ, 50 μM ATP, 1.5 μM peptide, 22 hours at room temperature
How it was run: as §1

Sequence of CK1δ (P48730 whole entry): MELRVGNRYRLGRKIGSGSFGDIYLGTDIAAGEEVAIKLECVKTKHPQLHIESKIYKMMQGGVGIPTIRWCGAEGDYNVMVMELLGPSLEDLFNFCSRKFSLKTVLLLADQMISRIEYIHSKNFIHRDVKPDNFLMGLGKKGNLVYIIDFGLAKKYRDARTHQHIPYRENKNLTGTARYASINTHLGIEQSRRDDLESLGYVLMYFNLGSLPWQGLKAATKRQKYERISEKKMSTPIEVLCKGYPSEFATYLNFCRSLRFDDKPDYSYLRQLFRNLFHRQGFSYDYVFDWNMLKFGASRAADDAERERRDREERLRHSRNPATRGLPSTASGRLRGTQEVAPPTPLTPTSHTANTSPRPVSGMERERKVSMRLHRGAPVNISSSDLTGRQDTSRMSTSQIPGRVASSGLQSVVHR
Sequence of CK1ε (P49674 whole entry): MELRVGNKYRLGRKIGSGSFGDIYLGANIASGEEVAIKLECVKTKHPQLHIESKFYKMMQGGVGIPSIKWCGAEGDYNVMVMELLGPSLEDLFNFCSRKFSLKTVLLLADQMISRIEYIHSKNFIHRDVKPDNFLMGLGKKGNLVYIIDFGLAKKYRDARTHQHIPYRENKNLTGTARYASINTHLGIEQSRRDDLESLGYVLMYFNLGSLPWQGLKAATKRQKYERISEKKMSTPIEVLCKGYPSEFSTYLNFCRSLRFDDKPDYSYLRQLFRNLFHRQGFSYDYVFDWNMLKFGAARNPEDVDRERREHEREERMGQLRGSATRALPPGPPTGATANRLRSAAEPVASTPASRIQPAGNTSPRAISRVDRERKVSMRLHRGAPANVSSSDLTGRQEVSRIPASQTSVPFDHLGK

Row | SMILES | IC50 (CK1ε; read-out: CK1ε IC50 range) [nM] | IC50 (CK1δ; read-out: CK1δ IC50 range) [nM] | IC50 (CK1ε; read-out: CK1ε) [nM] | IC50 (CK1δ; read-out: CK1δ) [nM]
1 | NC(=O)c1c(-c2ccc(F)c(Cl)c2)nn2c1CN(C(=O)NC1CC(F)(F)C1)C[C@@H]2CF [Compound A114, (R)-2-(3-Chloro-4-fluorophenyl)-N^5-(3,3-difluorocyclobutyl)-7-(fluoromethyl)-6,7-dihydropyrazolo[1,5-a]pyrazine-3,5(4H)-dicarboxamide] | 0.01 to 10 | 0.01 to 10 | – | –
2 | CC(C)(C)NC(=O)N1CCn2nc(-c3ccsc3)c(C(N)=O)c2C1 [Compound 121, N^5-(tert-Butyl)-2-(thiophen-3-yl)-6,7-dihydropyrazolo[1,5-a]pyrazine-3,5(4H)-dicarboxamide] | 100 to 2000 | 10 to 100 | – | –
3 | CC1(NC(=O)N2CCn3nc(-c4ccc(Cl)c(Cl)c4)c(C(N)=O)c3C2)CC2(C1)CC2(F)F (single isomer, unassigned) [Compound 329, 2-(3,4-Dichlorophenyl)-N^5-(1,1-difluoro-5-methylspiro[2.3]hexan-5-yl)-6,7-dihydropyrazolo[1,5-a]pyrazine-3,5(4H)-dicarboxamide] | 0.01 to 10 | 0.01 to 10 | – | –
4 | CC1(NC(=O)N2CCn3nc(-c4ccc(F)c(Cl)c4)c(C(N)=O)c3C2)CC(C(F)F)C1 (single isomer, unassigned) [Compound 258, 2-(3-Chloro-4-fluorophenyl)-N^5-(3-(difluoromethyl)-1-methylcyclobutyl)-6,7-dihydropyrazolo[1,5-a]pyrazine-3,5(4H)-dicarboxamide] | 0.01 to 10 | 0.01 to 10 | 0.7 | 0.5
5 | NC(=O)c1c(-c2cccc(Cl)c2)nn2c1CN(C(=O)NC1(c3cccnc3)CC(F)(F)C1)CC2 [Compound 312, 2-(3-Chlorophenyl)-N^5-(3,3-difluoro-1-(pyridin-3-yl)cyclobutyl)-6,7-dihydropyrazolo[1,5-a]pyrazine-3,5(4H)-dicarboxamide] | 0.01 to 10 | 0.01 to 10 | – | –
6 | NC(=O)c1c(-c2ccc(Cl)c(Cl)c2)nn2c1CN(C(=O)NC1CC(C(F)F)C1)CC2 (stereo not shown) [Compound 255, 2-(3,4-Dichlorophenyl)-N^5-(3-(difluoromethyl)cyclobutyl)-6,7-dihydropyrazolo[1,5-a]pyrazine-3,5(4H)-dicarboxamide] | 0.01 to 10 | 0.01 to 10 | – | –
7 | NC(=O)c1c(-c2ccc(F)c(Cl)c2)nn2c1CN(C(=O)NC1CC3(C1)CC(F)(F)C3)CC2 [Compound 196, 2-(3-Chloro-4-fluorophenyl)-N^5-(6,6-difluorospiro[3.3]heptan-2-yl)-6,7-dihydropyrazolo[1,5-a] pyrazine-3,5(4H)-dicarboxamide] | 0.01 to 10 | 0.01 to 10 | – | –
8 | CC1CN(C(=O)NC(C)(C)C)Cc2c(C(N)=O)c(-c3cccc(Cl)c3)nn21 (stereo not shown) [A8] | 0.01 to 10 | 0.01 to 10 | – | –
9 | CC(C)(C)NC(=O)N1CCn2nc(-c3cc(Cl)cc(C#N)c3)c(C(N)=O)c2C1 [Compound 154, N^5-(tert-Butyl)-2-(3-chloro-5-cyanophenyl)-6,7-dihydropyrazolo[1,5-a] pyrazine-3,5(4H)-dicarboxamide] | 10 to 100 | 10 to 100 | 27.7 | 24.3
10 | CC(C)(NC(=O)N1CCn2nc(-c3ccc(F)c(Cl)c3)c(C(N)=O)c2C1)C1CC(F)(F)C1 [Compound 226, 2-(3-Chloro-4-fluorophenyl)-N^5-(2-(3,3-difluorocyclobutyl)propan-2-yl)-6,7-dihydropyrazolo[1,5-a]pyrazine-3,5(4H)-dicarboxamide] | 0.01 to 10 | 0.01 to 10 | – | –
11 | CC(C)(NC(=O)N1CCn2nc(-c3ccc(Cl)c(Cl)c3)c(C(N)=O)c2C1)c1ccc(C#N)cc1 [Compound 200, N^5-(2-(4-Cyanophenyl)propan-2-yl)-2-(3,4-dichlorophenyl)-6,7-dihydropyrazolo[1,5-a] pyrazine-3,5(4H)-dicarboxamide] | 0.01 to 10 | 0.01 to 10 | – | –
12 | CC1(NC(=O)N2Cc3c(C(N)=O)c(-c4ccc(Cl)c(Cl)c4)nn3C(CF)C2)CC(F)(F)C1 (stereo not shown) [Compound A28, 2-(3,4-Dichlorophenyl)-N^5-(3,3-difluoro-1-methylcyclobutyl)-7-(fluoromethyl)-6,7-dihydropyrazolo[1,5-a]pyrazine-3,5(4H)-dicarboxamide] | 0.01 to 10 | 0.01 to 10 | – | –
13 | CC12CC3(C)CC(C)(C1)CC(NC(=O)N1CCn4nc(-c5cccc(Cl)c5)c(C(N)=O)c4C1)(C2)C3 [Compound A85, 2-(3-Chlorophenyl)-N^5-((3s,5s,7s)-3,5,7-trimethyladamantan-1-yl)-6,7-dihydropyrazolo[1,5-a]pyrazine-3,5(4H)-dicarboxamide] | 0.01 to 10 | 0.01 to 10 | – | –
14 | CC1(NC(=O)N2Cc3c(C(N)=O)c(-c4ccc(F)c(Cl)c4)nn3C(CF)C2)CC(F)(F)C1 (stereo not shown) [Compound A10, 2-(3-Chloro-4-fluorophenyl)-N^5-(3,3-difluoro-1-methylcyclobutyl)-7-(fluoromethyl)-6,7-dihydropyrazolo[1,5-a]pyrazine-3,5(4H)-dicarboxamide] | 0.01 to 10 | 0.01 to 10 | – | –
15 | CC(C)(C)NC(=O)N1CCn2nc(-c3cc4ccccc4nc3Cl)c(C(N)=O)c2C1 [Compound 140, N^5-(tert-Butyl)-2-(2-chloroquinolin-3-yl)-6,7-dihydropyrazolo[1,5-a] pyrazine-3,5(4H)-dicarboxamide] | 100 to 2000 | 100 to 2000 | – | –
16 | NC(=O)c1c(-c2ccc(F)c(Cl)c2)nn2c1CN(C(=O)NC1(C(F)F)CC(F)(F)C1)CC2 [Compound 304, 2-(3-Chloro-4-fluorophenyl)-N^5-(1-(difluoromethyl)-3,3-difluorocyclobutyl)-6,7-dihydropyrazolo[1,5-a]pyrazine-3,5(4H)-dicarboxamide] | 0.01 to 10 | 0.01 to 10 | – | –
17 | NC(=O)c1c(-c2cccc(F)c2)nn2c1CN(C(=O)Nc1cc(F)cc(F)c1F)CC2 [Compound 27, 2-(3-Fluorophenyl)-N^5-(2,3,5-trifluorophenyl)-6,7-dihydropyrazolo[1,5-a]pyrazine-3,5(4H)-dicarboxamide] | 10 to 100 | 10 to 100 | – | –
18 | Cn1cc(-c2nn3c(c2C(N)=O)CN(C(=O)NC(C)(C)C)CC3)cn1 [Compound 153, N^5-(tert-Butyl)-2-(1-methyl-1H-pyrazol-4-yl)-6,7-dihydropyrazolo[1,5-a] pyrazine-3,5(4H)-dicarboxamide] | 100 to 2000 | 100 to 2000 | – | –
19 | N#Cc1cccc(NC(=O)N2CCn3nc(-c4cccc(F)c4)c(C(N)=O)c3C2)c1 [Compound 54, N^5-(3-Cyanophenyl)-2-(3-fluorophenyl)-6,7-dihydropyrazolo[1,5-a]pyrazine-3,5(4H)-dicarboxamide] | 0.01 to 10 | 0.01 to 10 | – | –
20 | NC(=O)c1c(-c2cccc(F)c2)nn2c1CN(C(=O)NC1CCN(CCC(F)(F)F)CC1)CC2 [Compound 103, 2-(3-Fluorophenyl)-N^5-(1-(3,3,3-trifluoropropyl)piperidin-4-yl)-6,7-dihydropyrazolo[1,5-a]pyrazine-3,5(4H)-dicarboxamide] | 100 to 2000 | – | 541 | 70.6
21 | NC(=O)c1c(-c2ccc(F)c(Cl)c2)nn2c1CN(C(=O)N[C@H]1C[C@H](OC(F)(F)F)C1)CC2 [Compound 264, 2-(3-Chloro-4-fluorophenyl)-N^5-((1r,3r)-3-(trifluoromethoxy)cyclobutyl)-6,7-dihydropyrazolo[1,5-a]pyrazine-3,5(4H)-dicarboxamide] | 0.01 to 10 | 0.01 to 10 | – | –
22 | CC(C)(C)NC(=O)N1Cc2c(C(N)=O)c(-c3ccc(F)c(Cl)c3)nn2C(CN2CCOCC2)C1 (stereo not shown) [Compound A15, N^5-(tert-Butyl)-2-(3-chloro-4-fluorophenyl)-7-(morpholinomethyl)-6,7-dihydropyrazolo[1,5-a]pyrazine-3,5(4H)-dicarboxamide] | 0.01 to 10 | 0.01 to 10 | – | –
23 | NC(=O)c1c(-c2cccc(Cl)c2)nn2c1CN(C(=O)NC1(COC(F)F)CCC1)CC2 [Compound 225, 2-(3-Chlorophenyl)-N^5-(1-((difluoromethoxy)methyl)cyclobutyl)-6,7-dihydropyrazolo[1,5-a] pyrazine-3,5(4H)-dicarboxamide] | 0.01 to 10 | 0.01 to 10 | – | –
24 | NC(=O)c1c(-c2ccc(F)c(Cl)c2)nn2c1CN(C(=O)NC1CC3(CC3)C1)CC2 [Compound 195, 2-(3-Chloro-4-fluorophenyl)-N^5-(spiro [2.3]hexan-5-yl)-6,7-dihydropyrazolo[1,5-a] pyrazine-3,5(4H)-dicarboxamide] | 0.01 to 10 | 0.01 to 10 | – | –
25 | NC(=O)c1c(-c2cccc(F)c2)nn2c1CN(C(=O)Nc1ccc(F)cc1Cl)CC2 [Compound 32, N^5-(2-Chloro-4-fluorophenyl)-2-(3-fluorophenyl)-6,7-dihydropyrazolo[1,5-a]pyrazine-3,5(4H)-dicarboxamide] | 10 to 100 | 10 to 100 | – | –
26 | NC(=O)c1c(-c2cccc(Cl)c2)nn2c1CN(C(=O)NC1(c3ccc(F)cc3)CC(F)(F)C1)CC2 [Compound 309, 2-(3-Chlorophenyl)-N^5-(3,3-difluoro-1-(4-fluorophenyl)cyclobutyl)-6,7-dihydropyrazolo[1,5-a] pyrazine-3,5(4H)-dicarboxamide] | 0.01 to 10 | 0.01 to 10 | – | –
27 | NC(=O)c1c(-c2ccc(F)c(Cl)c2)nn2c1CN(C(=O)NC1(c3cccnc3)CC(F)(F)C1)CC2 [Compound 311, 2-(3-Chloro-4-fluorophenyl)-N^5-(3,3-difluoro-1-(pyridin-3-yl)cyclobutyl)-6,7-dihydropyrazolo[1,5-a]pyrazine-3,5(4H)-dicarboxamide] | 0.01 to 10 | 0.01 to 10 | – | –
28 | CC(C)(C)NC(=O)N1Cc2c(C(N)=O)c(-c3ccc(F)c(Cl)c3)nn2C(CCF)C1 (single isomer, unassigned) [Compound A103, N^5-(tert-Butyl)-2-(3-chloro-4-fluorophenyl)-7-(2-fluoroethyl)-6,7-dihydropyrazolo[1,5-a]pyrazine-3,5(4H)-dicarboxamide] | 0.01 to 10 | 0.01 to 10 | – | –
